In patent publication US20250320462A1, “METHODS AND APPARATUSES FOR TESTING HEPATOCYTE TOXICITY USING MICROORGANOSPHERES” (XILIS, INC., priority 2022, published 2025):
Like-named read-outs stand apart in the source and are kept apart here.

Key:
[1] = test system: HepatoMOS (PHHs); test: HepatoMOS-based DILI assay (CTG viability, live/dead staining); type: cell-based, human; conditions: for IC50: Homo sapiens; for sensitivity of HepatoMOS-based versus spheroid-based DILI assay: indicated by lower IC50 values and large safety margins
Method: Frozen human hepatocytes from Lonza were plated at 30,000 cells per well and allowed to establish in plating media. On day 2 plating media was removed and replaced with maintenance media and cultured for 1 day. On the third day, media was replaced with treatment media and the cells were treated for 72 hours. Prior to harvest HepatoMOSs were treated with CTG reagent to monitor viability.
100 cells/droplet was used in this experiment, the cell viabilities were determined by Celltiter Glo 3D.
(§1) Cell viability assay: The cell viabilities of PHHs in 2D monolayer culture or HepatoMOS culture were measured by CellTiter-Glo® 3D Cell Viability Assay (Promega). For the HepatoMOS viability measurement, we also applied the combination of Calcein AM and EtH staining in addition to CTG assay as previously reported.
(§2) DILI assessment in 2D PHHs and HepatoMOS: For the DILI assessment in the 2D monolayer of PHH cultures, PHHs were seeded at the cell density of 20,000 live cells/well in the collagen-coated 96-well plates. After 24h of culturing, the PHHs were exposed to DILI compounds at different concentrations. The cell viabilities of PHHs were then measured by using CTG assay and the DILI effects were assessed by the changes of CTG reading. For the DILI assessment in HepatoMOS culture, the HepatoMOS were encapsulated at 100 cells/droplet and cultured at HCM or InSphero media for 4 days. Then the HepatoMOS were dispensed into 96 well plates and followed by the drug treatment.

[2] = test system: 2D monolayer of PHH cultures; test: 2D-based DILI assay; type: cell-based, human
Method: as §1, §2

[3] = test system: spheroid PHHs; test: Spheroid-based DILI assay; type: cell-based, human
Method: Culture of PHHs and HepatoMOS generation: The pooled donors and the individual donor of PHHs were purchased from BioIVT (www.bioivt.com). The PHHs used to compare the DILI predictivities of the spheroid method vs. HepatoMOS methods were accompanied with the InSphero Kit. Four different serum-free media options (InSphero, HCM™ Hepatocyte Culture Medium BulletKit™, BioIVT INVITROGRO HI Medium, and William E) were selected for the initial HepatoMOS culture in this study. PHHs were cultured either as a 2D monolayer on collagen-coated 96-well plates or encapsulated in MOS to create HepatoMOS at different cell densities. For the comparison of HepatoMOS with the dome culture methods, matched cell densities used for the dome and making HepatoMOS were used.
Given the high fidelity of cell viability, maintenance, and hepatic-specific function preservation in HepatoMOS culture, the potential application in predicting DILI effects during drug development was evaluated. The sensitivities and specificities of HepatoMOS were compared with two widely used approaches for DILI detection: i) 2D culture; and ii) spheroid PHHs.

[4] = combined with immunotherapies; cited from earlier work
[5] = test system: 3D Hepatocyte Spheroid; conditions: values above 199 show no toxicity; read-out: 3D Hepatocyte Spheroid pIC50 (converted); cited from earlier work
[6] = test system: HepG2; conditions: values above 199 show no toxicity; read-out: Typical 2D HepG2 Monolayer Cell Health IC50; cited from earlier work
[7] = test system: tumor MOSs; test: Drug screen on MOSs generated from a patient tumor biopsy; type: cell-based
Method: (§3) In a similar set of experiments, MOSs were generated from biopsy material (FIG. 23A), and a drug effect screen was performed using the resulting MOSs. […] Thus, the MOSs correlated strongly with patient response to the standard of care drugs. In this case, the patient endured six months of side effects and toxicities that may have been avoided by the predicted response from the MOSs, indicating (within 7-10 days from the biopsy) that the tumor would not respond to these drugs.
In this example, a drug screen using the Patient-Derived MOSs was run by dosing a plurality of replicates for each of a plurality of (27) drugs. A single tumor biopsy was used to generate a plurality of MOSs in large quantities extremely fast (e.g., within less than two weeks) and these MOSs were tested against the panel of drug formulations (e.g., 27 formulations are shown). This testing was done in parallel and could be automatically quantified (e.g., by optical detection and quantification).

[8] = test system: tumor; test: Actual patient tumor response to treatment; conditions: in vivo
Method: as §3

[9] = test system: traditional cell line; test: Traditional cell line drug screen; type: cell-based; conditions: all dose ranges examined
Excerpt: As mentioned above, the MOSs and methods of using them to screen for drug compositions may be used to accurately predict the response of a patient tumor to one or more drug therapies. […] For example, in FIG. 22A-22D, the MOSs, but not a cell line, was able to correlate with patient response.

[10] = test system: mouse liver MOSs; test: Toxicity assay using mouse liver MOSs; type: cell-based; conditions: 10 mM
[11] = test system: human liver MOSs; test: Toxicity assay using human liver MOSs; type: cell-based; conditions: 10 mM
Excerpt: Similarly, FIGS. 34A-34B also show toxicity assays using human liver MOSs.

Structure (SMILES): C=CC(=O)N1CCN(c2nc(=O)n(-c3c(C)ccnc3C(C)C)c3nc(-c4c(O)cccc4F)c(F)cc23)[C@@H](C)C1 [AMG-510]
- IC50 ([1]; 10 donor batch): < 10 µM
- IC50 ([1]; single donor): < 3.7 µM
- DILI concern in 2D-based DILI assay [2]: failed to capture any DILI concern
- DILI concern in spheroid-based DILI assay [3]: failed to capture any DILI concern
- liver side effects in Phase 1 clinical trial [4]: higher incidence of severe liver side effects

Structure (SMILES): COc1ccccc1Oc1c(NS(=O)(=O)c2ccc(C(C)(C)C)cc2)nc(-c2ncccn2)nc1OCCO [Bosentan]
- IC50 [5]: 166 µM
- IC50 [6]: > 200 µM

Structure (SMILES): O=C(O)Cc1ccccc1Nc1c(Cl)cccc1Cl [Diclofenac]
- IC50 [5]: 66.1 µM
- IC50 [6]: > 200 µM

Structure (SMILES): O=c1[nH]c(=O)n([C@@H]2O[C@H](CO)[C@@H](O)[C@@H]2F)cc1I [Fialuridine]
- IC50 [5]: 1.32 µM
- IC50 [6]: > 200 µM

Structure (SMILES): CCc1c2c(nc3ccc(OC(=O)N4CCC(N5CCCCC5)CC4)cc13)-c1cc3c(c(=O)n1C2)COC(=O)[C@]3(O)CC [Irinotecan]
- cell survival of tumor MOSs [7]: lack of effect
- patient tumor response to treatment [8]: no response

Structure (SMILES): CS(=O)(=O)CCNCc1ccc(-c2ccc3ncnc(Nc4ccc(OCc5cccc(F)c5)c(Cl)c4)c3c2)o1 [Lapatinib]
- IC50 [5]: 1.32 µM
- IC50 [6]: > 200 µM

Structure (SMILES): O=C1[O][Pt]2([NH][C@@H]3CCCC[C@H]3[NH]2)[O]C1=O [Oxaliplatin]
- effect on traditional cell line [9]: no effect
- cell survival of tumor MOSs ([7]; listed as Oxalipalatin): no change in the percent survival
- cell survival of tumor MOSs ([7]; listed as Oxalipalitin): significant decreases in cell survival
- patient tumor response to treatment ([8]; listed as Oxalipalatin): no response
- patient tumor response to treatment ([8]; listed as Oxalipalitin): responded to treatment

Structure (SMILES): Cc1ccc(C(=O)c2cc(O)c(O)c([N+](=O)[O-])c2)cc1 [Tolcapone]
- sensitivity of HepatoMOS-based versus spheroid-based DILI assay [1]: better sensitivities
- IC50 [5]: 9.99 µM
- IC50 [6]: 91.2 µM

Structure (SMILES): Cc1c(C)c2c(c(C)c1O)CCC(C)(COc1ccc(CC3SC(=O)NC3=O)cc1)O2 (centres unmarked) [Troglitazone]
- sensitivity of HepatoMOS-based versus spheroid-based DILI assay [1]: better sensitivities

Structure (SMILES): CC(=O)Nc1ccc(O)cc1 [acetaminophen]
- tissue in mouse liver MOSs versus control [10]: smaller and contains many dead cells
- tissue in human liver MOSs versus control [11]: significant increase atypical tissue structures (arrows) and debris
